Experimental data: patent US9645154B2, “Method for detecting cancer cell” (ARKRAY, Inc., priority 2010, dated 2017)

Experiments:
[1] = system: human fibrosarcoma cell line HT1080; assay: Labeled sugar incorporation, fluorescence microscopy image analysis (positive rate); type: cell-based; settings: for Positive rate (Cancer cells): Fibrosarcoma, threshold value 370; for Positive rate of cancer cells: fibrosarcoma cell line
Source text: In accordance with the conventional method, cultured human fibrosarcoma cell line HT1080 (DS Pharma Biomedical Co., Ltd.) was harvested with trypsin (Invitrogen). The human gastric cancer cell line SNU-1 (ATCC), which is a suspension cell line, was directly harvested without any trypsin treatment. The cell suspension of the harvested cancer cells was centrifuged, and the supernatant was removed. The cells were resuspended with Dulbecco's PBS (−) (Nissui Pharmaceutical Co., Ltd.) and centrifuged, and the supernatant was removed again.
(§1) When performing the hemolyzing treatment, the blood cell fraction collected as described above was hemolyzed using ammonium chloride (STEMCELL Technologies) according to the manufacture's manuals.
(§2) The number of the cells was counted for each cell line using a hemacytometer in accordance with the conventional method, and then 10^5 to 10^6 cells per sample (cell suspension) was aliquoted. Each of the sample was centrifuged to remove the supernatant. Subsequently, 2-NBDG (Wako Pure Chemical Industries, Ltd.; at the final concentration given in Table 3 or 4) dissolved in Dulbecco's PBS (−) was added thereto, and the cells were suspended well. After the reaction, Dulbecco's PBS (−) was added to the mixture, and the resultant was centrifuged to remove the supernatant. The cells were resuspended with Dulbecco's PBS (−) and centrifuged, and the supernatant was removed again. The steps of resuspending cells with Dulbecco's PBS (−), centrifuging and removing the supernatant were then repeated 2 to 3 times, thereby washing the cells thoroughly. The cells were resuspended with Dulbecco's PBS (−), the concentration thereof was adjusted, and then added dropwise to a 384-well plate. The plate was centrifuged to spin down the cells. The image was captured with a fluorescence microscope (Nikon Corp.) using B-2A filter combination (Nikon Corp.). The B-2A set covers the following wavelengths. EX (excitation wavelength): 475±15 nm, DM: 505 nm or longer, BA (fluorescence wavelength) 520 nm or longer.
(§3) The acquired images were analyzed using an image analysis software NIS-ELEMENTS (trade name, Nikon Corp.) to evaluate the fluorescence intensity of the cell. […]
In a manner similar to Example 2, each of human breast adenocarcinoma cells (cell line name: MCF-7; DS Pharma Biomedical Co., Ltd.), human colon adenocarcinoma cells (cell line name: SW620; DS Pharma Biomedical Co., Ltd.), human prostate cancer cells (cell line name: PC3; DS Pharma Biomedical Co., Ltd.), human alveolar epithelial cancer cells (cell line name: NCI-H358; DS Pharma Biomedical Co., Ltd.), human gastric cancer cells (cell line name: SNU-1; ATCC) and human fibrosarcoma cells (cell line name: HT1080; DS Pharma Biomedical Co., Ltd.) was detected with the labeled sugar (2-NBDG).

[2] = system: Blood cells; assay: Labeled sugar incorporation, fluorescence microscopy image analysis (false-positive/negative rate); type: cell-based, human
Source text: Blood was collected from a human subject using a vacuum blood collection tube (with EDTA•2K). Blood cells were separated using HetaSep (STEMCELL Technologies) in accordance with manufacturer's instructions.
as §1, §2, §3

[3] = hemolyzed, 10 mM, 5 min, 23° C.
[4] = hemolyzed, 0.1 mM, 37° C., 30 min, threshold value 380
[5] = hemolyzed, 1 mM, 37° C., 30 min, threshold value 520
[6] = hemolyzed, 10 mM, 37° C., 30 min, threshold value 1150
[7] = hemolyzed, 4° C., 10 mM, 5 min, threshold value 640
[8] = hemolyzed, 23° C., 10 mM, 5 min, threshold value 640
[9] = hemolyzed, 37° C., 10 mM, 5 min, threshold value 750
[10] = hemolyzed, 5 min, 10 mM, 37° C., threshold value 570
[11] = hemolyzed, 30 min, 10 mM, 37° C., threshold value 880
[12] = hemolyzed, 60 min, 10 mM, 37° C., threshold value 750
[13] = not hemolyzed, 10 mM, 5 min, 23° C.
[14] = without hemolyzing treatment, 0.1 mM, 37° C., 30 min, threshold value 280
[15] = without hemolyzing treatment, 1 mM, 37° C., 30 min, threshold value 330
[16] = without hemolyzing treatment, 10 mM, 37° C., 30 min, threshold value 450 (concentration series)
[17] = without hemolyzing treatment, 4° C., 10 mM, 5 min, threshold value 310
[18] = without hemolyzing treatment, 23° C., 10 mM, 5 min, threshold value 360
[19] = without hemolyzing treatment, 37° C., 10 mM, 5 min, threshold value 390
[20] = without hemolyzing treatment, 5 min, 10 mM, 37° C., threshold value 380
[21] = without hemolyzing treatment, 30 min, 10 mM, 37° C., threshold value 450 (time series)
[22] = without hemolyzing treatment, 60 min, 10 mM, 37° C., threshold value 500
[23] = fresh blood, Mean luminance, hemolyzed, 10 mM, 5 min, 23° C.
[24] = fresh blood, Total luminance, hemolyzed, 10 mM, 5 min, 23° C.
[25] = hemolyzed, 10 mM, 5 min, 23° C., threshold value 280 (Colon adenocarcinoma)
[26] = hemolyzed, 10 mM, 5 min, 23° C., threshold value 330 (Breast adenocarcinoma)
[27] = hemolyzed, 10 mM, 5 min, 23° C., threshold value 370 (Alveolar epithelial cancer)
[28] = hemolyzed, 10 mM, 5 min, 23° C., threshold value 370 (Fibrosarcoma)
[29] = hemolyzed, 10 mM, 5 min, 23° C., threshold value 490 (Gastric cancer)
[30] = hemolyzed, 10 mM, 5 min, 23° C., threshold value 880 (Prostate cancer)
[31] = single, Glucose conc.: 1 mM, Temp.: 37° C., Time: 30 min, threshold value 280 (Colon adenocarcinoma)
[32] = single, Glucose conc.: 1 mM, Temp.: 37° C., Time: 30 min, threshold value 370 (Fibrosarcoma)
[33] = single, Glucose conc.: 1 mM, Temp.: 37° C., Time: 30 min, threshold value 490 (Gastric cancer)

O=[N+]([O-])c1ccc(N[C@H]2C(O)O[C@H](CO)[C@@H](O)[C@@H]2O)c2nonc12 (stereo partly drawn) [2-NBDG, 2-[N-(7-nitrobenz-2-oxa-1,3-diazol-4-yl)amino]-2-deoxy-D-glucose]
Positive rate (Cancer cells) [1, 3]: 100.0% | Positive rate (Cancer cells) ([1]; single, Glucose conc.: 1 mM, Temp.: 37° C., Time: 30 min): 100.0% | Positive rate of cancer cells ([1]; Mean luminance, hemolyzed, 10 mM, 5 min, 23° C., threshold value 436): 100.0% | Positive rate of cancer cells ([1]; Total luminance, hemolyzed, 10 mM, 5 min, 23° C., threshold value 35,000): 90.7% | Positive rate (Fibrosarcoma cell line) [1, 3]: 100.0% | Positive rate (HT1080 cells) [1, 4]: 33.3% | Positive rate (HT1080 cells) [1, 5]: 73.1% | Positive rate (HT1080 cells) [1, 6]: 95.0% | Positive rate (HT1080 cells) [1, 7]: 79.0% | Positive rate (HT1080 cells) [1, 8]: 81.1% | Positive rate (HT1080 cells) [1, 9]: 89.4% | Positive rate (HT1080 cells) [1, 10]: 119.8% | Positive rate (HT1080 cells) [1, 11]: 107.8% | Positive rate (HT1080 cells) [1, 12]: 102.9% | Positive rate (Fibrosarcoma cell line) [1, 13]: 92.6% | Positive rate (HT1080 cells) [1, 14]: 51.8% | Positive rate (HT1080 cells) [1, 15]: 89.5% | Positive rate (HT1080 cells) [1, 16]: 90.0% | Positive rate (HT1080 cells) [1, 17]: 94.9% | Positive rate (HT1080 cells) [1, 18]: 92.6% | Positive rate (HT1080 cells) [1, 19]: 101.5% | Positive rate (HT1080 cells) [1, 20]: 92.6% | Positive rate (HT1080 cells) [1, 21]: 97.1% | Positive rate (HT1080 cells) [1, 22]: 98.4% | Negative rate (Blood cells) [2, 23]: 95.2% | Positive rate of cancer cells (Blood cell data) [2, 23]: 4.8% | Negative rate (Blood cells) [2, 24]: 91.0% | Positive rate of cancer cells (Blood cell data) [2, 24]: 9.0% | Negative rate (Blood cells (fresh blood)) [2, 3]: 95.2% | Positive rate (Blood cells (fresh blood)) [2, 3]: 4.8% | Negative rate (Blood cells (fresh blood)) [2, 25]: 96.6% | Positive rate (Blood cells (fresh blood)) [2, 25]: 3.4% | Negative rate (Blood cells (fresh blood)) [2, 26]: 94.2% | Positive rate (Blood cells (fresh blood)) [2, 26]: 5.8% | Negative rate (Blood cells (fresh blood)) [2, 27]: 98.3% | Positive rate (Blood cells (fresh blood)) [2, 27]: 1.7% | Negative rate (Blood cells (fresh blood)) [2, 28]: 95.2% | Positive rate (Blood cells (fresh blood)) [2, 28]: 4.8% | Negative rate (Blood cells (fresh blood)) [2, 29]: 100.0% | Positive rate (Blood cells (fresh blood)) [2, 29]: 0.0% | Negative rate (Blood cells (fresh blood)) [2, 30]: 100.0% | Positive rate (Blood cells (fresh blood)) [2, 30]: 0.0% | Negative rate (Blood cells) [2, 4]: 100.0% | Positive rate (Blood cells) [2, 4]: 0.0% | Negative rate (Blood cells) [2, 5]: 98.9% | Positive rate (Blood cells) [2, 5]: 1.1% | Negative rate (Blood cells) [2, 6]: 100.0% | Positive rate (Blood cells) [2, 6]: 0.0% | Negative rate (Blood cells) [2, 7]: 100.0% | Positive rate (Blood cells) [2, 7]: 0.0% | Negative rate (Blood cells) [2, 8]: 99.2% | Positive rate (Blood cells) [2, 8]: 0.8% | Negative rate (Blood cells) [2, 9]: 98.5% | Positive rate (Blood cells) [2, 9]: 1.5% | Negative rate (Blood cells) [2, 10]: 99.1% | Positive rate (Blood cells) [2, 10]: 0.9% | Negative rate (Blood cells) [2, 11]: 99.7% | Positive rate (Blood cells) [2, 11]: 0.3% | Negative rate (Blood cells) [2, 12]: 97.1% | Positive rate (Blood cells) [2, 12]: 2.9% | Negative rate (Blood cells (fresh blood)) [2, 13]: 97.9% | Positive rate (Blood cells (fresh blood)) [2, 13]: 2.1% | Negative rate (Blood cells (fresh blood)) [2, 31]: 96.6% | Positive rate (Blood cells (fresh blood)) [2, 31]: 3.4% | Negative rate (Blood cells (fresh blood)) [2, 32]: 95.2% | Positive rate (Blood cells (fresh blood)) [2, 32]: 4.8% | Negative rate (Blood cells (fresh blood)) [2, 33]: 100.0% | Positive rate (Blood cells (fresh blood)) [2, 33]: 0.0% | Negative rate (Blood cells) [2, 14]: 100.0% | Positive rate (Blood cells) [2, 14]: 0.0% | Negative rate (Blood cells) [2, 15]: 98.5% | Positive rate (Blood cells) [2, 15]: 1.5% | Negative rate (Blood cells) [2, 16]: 98.9% | Positive rate (Blood cells) [2, 16]: 1.1% | Negative rate (Blood cells) [2, 17]: 99.1% | Positive rate (Blood cells) [2, 17]: 0.9% | Negative rate (Blood cells) [2, 18]: 97.9% | Positive rate (Blood cells) [2, 18]: 2.1% | Negative rate (Blood cells) [2, 19]: 99.0% | Positive rate (Blood cells) [2, 19]: 1.0% | Negative rate (Blood cells) [2, 20]: 98.6% | Positive rate (Blood cells) [2, 20]: 1.4% | Negative rate (Blood cells) [2, 21]: 98.9% | Positive rate (Blood cells) [2, 21]: 1.1% | Negative rate (Blood cells) [2, 22]: 91.2% | Positive rate (Blood cells) [2, 22]: 8.8%
